# Measurements reported in PubChem BioAssay AID2060883 (Molecular Pharmacology Branch, DTP, NCI, 2025).
# Test system: 843782-103-R-J1-PDC complex spheroid viability
# Test: Anticancer human tumor 843782-103-R-J1-PDC patient-derived lung adenocarcinoma cell line growth inhibition [RAS]
# Conditions: for IC50: curve of first compound; for viability, T/C: stronger effect = lower value
# In short: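 Multi-cell-type spheroids: tumor cells plus HUVEC endothelial cells and mesenchymal stem cells. RAS-pathway inhibitors were combined with targeted agents, each dosed in half-log steps down from clinical Cmax, or from 10 microM when Cmax was unknown.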
# [1] = second compound 0.000949 µM, first compound 0.0316 µM
# [2] = second compound 0.000949 µM, first compound 0.1 µM
# [3] = second compound 0.000949 µM, first compound 0.316 µM
# [4] = second compound 0.000949 µM, first compound 1 µM
# [5] = second compound 0.003 µM, first compound 0.0316 µM
# [6] = second compound 0.003 µM, first compound 0.1 µM
# [7] = second compound 0.003 µM, first compound 0.316 µM
# [8] = second compound 0.003 µM, first compound 1 µM
# [9] = second compound 0.00949 µM, first compound 0.0316 µM
# [10] = second compound 0.00949 µM, first compound 0.1 µM
# [11] = second compound 0.00949 µM, first compound 0.316 µM
# [12] = second compound 0.00949 µM, first compound 1 µM
# [13] = second compound 0.03 µM, first compound 0.0316 µM
# [14] = second compound 0.03 µM, first compound 0.1 µM
# [15] = second compound 0.03 µM, first compound 0.316 µM
# [16] = second compound 0.03 µM, first compound 1 µM
# [17] = second compound 0.0949 µM, first compound 0.0316 µM
# [18] = second compound 0.0949 µM, first compound 0.1 µM
# [19] = second compound 0.0949 µM, first compound 0.316 µM
# [20] = second compound 0.0949 µM, first compound 1 µM
# [21] = second compound 0.3 µM, first compound 0.0316 µM
# [22] = second compound 0.3 µM, first compound 0.1 µM
# [23] = second compound 0.3 µM, first compound 0.316 µM
# [24] = second compound 0.3 µM, first compound 1 µM
# 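Also: viability read after seven days of compound exposure.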
smiles,measurement,setting,value
NC1c2ccccc2OC12CCN(c1cnc3c(N4CCCc5ncccc54)n[nH]c3n1)CC2 (stereo unspecified) + CCn1c(-c2cccnc2C(C)OC)c2c3cc(ccc31)N1CCOC(CC(NC(=O)C(C(C)C)N(C)C(=O)C3(F)CCN(C(=O)C#CC(C)(C)N(C)C)CC3)C(=O)N3CCCC(N3)C(=O)OCC(C)(C)C2)C1,IC50,second compound 0.000949 µM,< 31.6 nM
same,IC50,second compound 0.003 µM,< 31.6 nM
same,IC50,second compound 0.00949 µM,< 31.6 nM
same,IC50,second compound 0.03 µM,< 31.6 nM
same,IC50,second compound 0.0949 µM,< 31.6 nM
same,IC50,second compound 0.3 µM,< 31.6 nM
same,"viability, T/C",[1],35.5%
same,"viability, T/C",[2],24.2%
same,"viability, T/C",[3],17.8%
same,"viability, T/C",[4],17%
same,"viability, T/C","second compound 0.000949 µM, first compound 3.16 µM",11.9%
same,"viability, T/C","second compound 0.000949 µM, first compound 10 µM",15.1%
same,"viability, T/C",[5],32.3%
same,"viability, T/C",[6],21.8%
same,"viability, T/C",[7],20.1%
same,"viability, T/C",[8],16.4%
same,"viability, T/C","second compound 0.003 µM, first compound 3.16 µM",15.2%
same,"viability, T/C","second compound 0.003 µM, first compound 10 µM",12.4%
same,"viability, T/C",[9],27.7%
same,"viability, T/C",[10],25.4%
same,"viability, T/C",[11],21%
same,"viability, T/C",[12],14.5%
same,"viability, T/C","second compound 0.00949 µM, first compound 3.16 µM",14.9%
same,"viability, T/C","second compound 0.00949 µM, first compound 10 µM",13.7%
same,"viability, T/C",[13],28.8%
same,"viability, T/C",[14],24.7%
same,"viability, T/C",[15],21.4%
same,"viability, T/C",[16],18.5%
same,"viability, T/C","second compound 0.03 µM, first compound 3.16 µM",15.8%
same,"viability, T/C","second compound 0.03 µM, first compound 10 µM",14.1%
same,"viability, T/C",[17],38.2%
same,"viability, T/C",[18],24.4%
same,"viability, T/C",[19],24%
same,"viability, T/C",[20],16.6%
same,"viability, T/C","second compound 0.0949 µM, first compound 3.16 µM",15.4%
same,"viability, T/C","second compound 0.0949 µM, first compound 10 µM",12.4%
same,"viability, T/C",[21],26.1%
same,"viability, T/C",[22],23.8%
same,"viability, T/C",[23],18.8%
same,"viability, T/C",[24],21.8%
same,"viability, T/C","second compound 0.3 µM, first compound 3.16 µM",16.9%
same,"viability, T/C","second compound 0.3 µM, first compound 10 µM",14.1%
Nc1ccn(C2OC(CO)C(O)C2(F)F)c(=O)n1 (stereo unspecified) + CCn1c(-c2cccnc2C(C)OC)c2c3cc(ccc31)N1CCOC(CC(NC(=O)C(C(C)C)N(C)C(=O)C3(F)CCN(C(=O)C#CC(C)(C)N(C)C)CC3)C(=O)N3CCCC(N3)C(=O)OCC(C)(C)C2)C1,IC50,second compound 0.000949 µM,11 nM
same,IC50,second compound 0.003 µM,16.6 nM
same,IC50,second compound 0.00949 µM,13.1 nM
same,IC50,second compound 0.03 µM,16.7 nM
same,IC50,second compound 0.0949 µM,16.9 nM
same,IC50,second compound 0.3 µM,14.3 nM
same,"viability, T/C","second compound 0.000949 µM, first compound 0.00316 µM",70.1%
same,"viability, T/C","second compound 0.000949 µM, first compound 0.01 µM",52%
same,"viability, T/C",[1],22.1%
same,"viability, T/C",[2],2.91%
same,"viability, T/C",[3],1.53%
same,"viability, T/C",[4],1.52%
same,"viability, T/C","second compound 0.003 µM, first compound 0.00316 µM",77.5%
same,"viability, T/C","second compound 0.003 µM, first compound 0.01 µM",72%
same,"viability, T/C",[5],21.7%
same,"viability, T/C",[6],2.04%
same,"viability, T/C",[7],1.96%
same,"viability, T/C",[8],2.38%
same,"viability, T/C","second compound 0.00949 µM, first compound 0.00316 µM",73.3%
same,"viability, T/C","second compound 0.00949 µM, first compound 0.01 µM",59.4%
same,"viability, T/C",[9],18.9%
same,"viability, T/C",[10],2.07%
same,"viability, T/C",[11],1.82%
same,"viability, T/C",[12],1.89%
same,"viability, T/C","second compound 0.03 µM, first compound 0.00316 µM",72.4%
same,"viability, T/C","second compound 0.03 µM, first compound 0.01 µM",74.5%
same,"viability, T/C",[13],21.1%
same,"viability, T/C",[14],2.07%
same,"viability, T/C",[15],1.99%
same,"viability, T/C",[16],1.85%
same,"viability, T/C","second compound 0.0949 µM, first compound 0.00316 µM",85.6%
same,"viability, T/C","second compound 0.0949 µM, first compound 0.01 µM",69.9%
same,"viability, T/C",[17],26.4%
same,"viability, T/C",[18],2.27%
same,"viability, T/C",[19],1.51%
same,"viability, T/C",[20],1.37%
same,"viability, T/C","second compound 0.3 µM, first compound 0.00316 µM",70.4%
same,"viability, T/C","second compound 0.3 µM, first compound 0.01 µM",62.7%
same,"viability, T/C",[21],21.8%
same,"viability, T/C",[22],2.7%
same,"viability, T/C",[23],1.81%
same,"viability, T/C",[24],1.46%
O=C(c1ccc(F)c(F)c1Nc1ccc(I)cc1F)N1CC(O)([C@@H]2CCCCN2)C1 + C#Cc1c(F)ccc2cc(O)cc(-c3ncc4c(N5CC6CCC(C5)N6)nc(OCC56CCCN5CC(F)C6)nc4c3F)c12,IC50,second compound 0.0316 µM,287 nM
same,IC50,second compound 0.1 µM,231 nM
same,IC50,second compound 0.316 µM,230 nM
same,IC50,second compound 1 µM,129 nM
same,IC50,second compound 3.16 µM,35.2 nM
same,IC50,second compound 10 µM,6.34 nM
same,"viability, T/C","second compound 0.0316 µM, first compound 0.00316 µM",107%
same,"viability, T/C","second compound 0.0316 µM, first compound 0.01 µM",94.2%
same,"viability, T/C","second compound 0.0316 µM, first compound 0.0316 µM",92.5%
same,"viability, T/C","second compound 0.0316 µM, first compound 0.1 µM",84.1%
same,"viability, T/C","second compound 0.0316 µM, first compound 0.316 µM",45.9%
same,"viability, T/C","second compound 0.0316 µM, first compound 1 µM",20%
same,"viability, T/C","second compound 0.1 µM, first compound 0.00316 µM",107%
same,"viability, T/C","second compound 0.1 µM, first compound 0.01 µM",104%
same,"viability, T/C","second compound 0.1 µM, first compound 0.0316 µM",89.5%
same,"viability, T/C","second compound 0.1 µM, first compound 0.1 µM",74%
same,"viability, T/C","second compound 0.1 µM, first compound 0.316 µM",39.4%
same,"viability, T/C","second compound 0.1 µM, first compound 1 µM",27.7%
same,"viability, T/C","second compound 0.316 µM, first compound 0.00316 µM",102%
same,"viability, T/C","second compound 0.316 µM, first compound 0.01 µM",90.7%
same,"viability, T/C","second compound 0.316 µM, first compound 0.0316 µM",89.1%
same,"viability, T/C","second compound 0.316 µM, first compound 0.1 µM",75.5%
same,"viability, T/C","second compound 0.316 µM, first compound 0.316 µM",39.6%
same,"viability, T/C","second compound 0.316 µM, first compound 1 µM",22.3%
same,"viability, T/C","second compound 1 µM, first compound 0.00316 µM",96%
same,"viability, T/C","second compound 1 µM, first compound 0.01 µM",95.4%
same,"viability, T/C","second compound 1 µM, first compound 0.0316 µM",81.8%
same,"viability, T/C","second compound 1 µM, first compound 0.1 µM",56.6%
same,"viability, T/C","second compound 1 µM, first compound 0.316 µM",28.9%
same,"viability, T/C","second compound 1 µM, first compound 1 µM",19.7%
same,"viability, T/C","second compound 3.16 µM, first compound 0.00316 µM",81.5%
same,"viability, T/C","second compound 3.16 µM, first compound 0.01 µM",65.7%
same,"viability, T/C","second compound 3.16 µM, first compound 0.0316 µM",53.8%
same,"viability, T/C","second compound 3.16 µM, first compound 0.1 µM",34.9%
same,"viability, T/C","second compound 3.16 µM, first compound 0.316 µM",26.4%
same,"viability, T/C","second compound 3.16 µM, first compound 1 µM",18.4%
same,"viability, T/C","second compound 10 µM, first compound 0.00316 µM",56.3%
same,"viability, T/C","second compound 10 µM, first compound 0.01 µM",46.5%
same,"viability, T/C","second compound 10 µM, first compound 0.0316 µM",34.5%
same,"viability, T/C","second compound 10 µM, first compound 0.1 µM",26.9%
same,"viability, T/C","second compound 10 µM, first compound 0.316 µM",19.2%
same,"viability, T/C","second compound 10 µM, first compound 1 µM",14%
